Assay: DPPH radical scavenging antioxidant test
Type: biochemical
Settings: 517 nm; for Inhibition (radical scavenging inhibition): compound 3 μM in ethanol, 0.2 mL DPPH (0.75 mM), 30 minutes in the dark
Description: The antioxidant activity of 6′-(3-bromophenyl)-2′-ethoxy-3,4′-bipyridine-3′-carbonitrile was investigated by 2,2-diphenyl-1-picrylhydrazyl (DPPH) in vitro tests that employ vitamin C as the positive control.
The antioxidant properties of the 6′-(3-bromophenyl)-2′-ethoxy-3,4′-bipyridine-3′-carbonitrile compound were studied by adding 0.2 mL DPPH (0.75 mM)) to 6′-(3-bromophenyl)-2′-ethoxy-3,4′-bipyridine-3′-carbonitrile (3 μM) (4) in ethanol. After 30 minutes of incubation in the dark, the absorbance was read against a blank at 517 nm. Ascorbic acid (vitamin C) was used as standard antioxidants (positive control). A blank sample was prepared by 0.2 mL of DPPH in 3 mL ethanol. A negative control sample was run using ethanol instead of the sample. The radical scavenging inhibition was calculated using the following equation: […]

Structure (SMILES) | antioxidant potential (DPPH) compared to vitamin C (DPPH in vitro test, vitamin C as positive control) | Inhibition (radical scavenging inhibition) [%]
CCOc1nc(-c2cccc(Br)c2)cc(-c2cccnc2)c1C#N [Product 4, 6′-(3-bromophenyl)-2′-ethoxy-3,4′-bipyridine-3′-carbonitrile] | high potential as an antioxidant compared to vitamin C | 48
O=C1O[C@H]([C@@H](O)CO)C(O)=C1O [vit c, Ascorbic acid, reference compound] | – | 74
